For series [1], the system named is RAW264.7. The experiment in a line: Cytotoxicity against mouse RAW264.7 cells assessed as cell viability at 50 uM after 24 hrs by MTT assay. It is filed as cell-based. The following applies: for Activity: mouse, raw264.7, 24 h, 50 µM.
Series [2] has as its system RAW264.7. The series can be described thus: Inhibition of LPS-induced COX-2 expression in mouse RAW264.7 cells at 1 to 30 uM treated 30 mins before LPS challenge measured after 18 hrs by immunoblot analysis. It counts as functional, cell-based. A general note: In western blotting, separated proteins are transferred to a membrane and probed.
Series [3] has as its system RAW264.7. The series can be described thus: Antiinflammatory activity in mouse RAW264.7 cells assessed as inhibition of LPS-induced nitric oxide production by Griess reaction method. It counts as functional, cell-based.
In series [4] the test system is RAW264.7. The experiment in a line: Cytotoxicity against LPS-stimulated mouse RAW264.7 cells assessed as cell viability at 50 uM after 24 hrs by MTT assay. It is filed as cell-based. To be noted: raw264.7, 24 h. In general terms: Tetrazolium assays rely on reduction of a dye to a coloured formazan, in cell work by metabolically active cells.
Series [5] has as its system RAW264.7. The experiment in a line: Inhibition of LPS-induced iNOS expression in mouse RAW264.7 cells treated 30 mins before LPS challenge measured after 18 hrs by immunoblot analysis. It counts as functional, cell-based.

Active and inactive are the calls of the source. The calls are words filed in the database; no cut-off is given here.

This passage reports Activity, inhibition and IC50 results from ChEMBL document CHEMBL2331133, “Inhibitory effect on NO production of triterpenes from the fruiting bodies of Ganoderma lucidum” (Bioorg Med Chem Lett, 2013).

As a reminder, the IC50 is the concentration that gives 50% inhibition.

In the case of `CCCCOC(=O)CC[C@@H](C)[C@H]1CC(=O)[C@@]2(C)C3=C(C(=O)[C@@H](OC(C)=O)[C@]12C)[C@@]1(C)CC[C@H](O)C(C)(C)[C@@H]1CC3=O` [BUTYL LUCIDENATE E2], the Activity result in the series on RAW264.7 [1] and in the series on RAW264.7 [4] was “Non-toxic” throughout. Besides, the inhibition result with RAW264.7 [2] was “Active”. In addition, the IC50 in the series on RAW264.7 [3] was found to be 6.4 µM. For the same molecule, in the series with RAW264.7 [5], the inhibition entry is “Dose-dependent effect”.

Regarding `COC(=O)CC[C@@H](C)[C@H]1CC(=O)[C@@]2(C)C3=C(C(=O)C[C@]12C)[C@@]1(C)CC[C@H](O)C(C)(C)[C@@H]1C[C@@H]3O` [METHYL LUCIDENATE N], the Activity result in the series on RAW264.7 [1] and with RAW264.7 [4] was “Non-toxic” in each case.

On to `COC(=O)C(C)CC(=O)C[C@@H](C)[C@H]1CC(=O)[C@@]2(C)C3=C(C(=O)[C@@H](OC(C)=O)[C@]12C)[C@@]1(C)CC[C@H](O)C(C)(C)[C@@H]1CC3=O` (stereo partly specified) [METHYL GANODERATE H], for which the Activity result with RAW264.7 [1] and in the series with RAW264.7 [4] was “Non-toxic” in each case.

With `CCCCOC(=O)CC[C@@H](C)[C@H]1C[C@H](O)[C@@]2(C)C3=C(C(=O)C[C@]12C)[C@@]1(C)CCC(=O)C(C)(C)[C@@H]1C[C@@H]3O` [LUCIDENATE Q], the 50% inhibitory concentration (IC50) came to 14 µM with RAW264.7 [1] (Mus musculus, RAW264.7, 24 h) and 4.3 µM with RAW264.7 [3].

`COC(=O)CC[C@@H](C)[C@H]1CC(=O)[C@@]2(C)C3=C(C(=O)C[C@]12C)[C@@]1(C)CCC(=O)C(C)(C)[C@@H]1C[C@@H]3O` [METHYL LUCIDENATE A]: the Activity result with RAW264.7 [1] and in the series on RAW264.7 [4] was “Non-toxic” each time.

`C[C@H](CCC=C(CO)CO)[C@H]1CC[C@@]2(C)C3=CC[C@H]4C(C)(C)C(=O)CC[C@]4(C)C3=CC[C@]12C` [GANODERIOL F]: the Activity entry in the series on RAW264.7 [1] and with RAW264.7 [4] was “Non-toxic” throughout. In addition, in the series on RAW264.7 [3], the IC50 came out at 36 µM.

Consider `CCCCOC(=O)CC[C@@H](C)[C@H]1CC(=O)[C@@]2(C)C3=C(C(=O)C[C@]12C)[C@@]1(C)CC[C@H](O)C(C)(C)[C@@H]1C[C@@H]3O` [BUTYL LUCIDENATE N], for which the Activity result in the series on RAW264.7 [1] and with RAW264.7 [4] was “Non-toxic” in each case. Further, the inhibition entry with RAW264.7 [2] was “Active”. The IC50 with RAW264.7 [3] came to 4.5 µM. Besides, in the series with RAW264.7 [5], the inhibition result is “Dose-dependent effect”.

Regarding `COC(=O)C(C)CC(=O)C[C@@H](C)[C@H]1C[C@H](O)[C@@]2(C)C3=C(C(=O)C[C@]12C)[C@@]1(C)CCC(=O)C(C)(C)[C@@H]1CC3=O` (stereo partly specified) [METHYL GANODERATE J], the Activity result in the series with RAW264.7 [1] and with RAW264.7 [4] was “Non-toxic” throughout. The IC50 with RAW264.7 [3] came to 9.2 µM.

For the molecule `CC(C)[C@@H](C)/C=C/[C@@H](C)[C@H]1CC[C@H]2C3=CC[C@H]4C[C@@H](O)CC[C@]4(C)[C@H]3CC[C@]12C`, the Activity result in the series on RAW264.7 [1] and in the series on RAW264.7 [4] was “Non-toxic” in each case.

`CC(C)[C@@H](C)/C=C/[C@@H](C)[C@H]1CC[C@H]2C3=CC=C4C[C@@H](O)CC[C@]4(C)[C@H]3CC[C@]12C` [ERGOSTEROL]: the Activity entry with RAW264.7 [1] and in the series with RAW264.7 [4] was “Non-toxic” each time.

Consider `CC(C)[C@@H](C)/C=C/[C@@H](C)[C@H]1CC[C@@H]2[C@]1(C)CC[C@H]1[C@]23C=C[C@]2(C[C@@H](O)CC[C@]12C)OO3` [ERGOSTEROL PEROXIDE], for which the Activity entry in the series on RAW264.7 [1] and in the series on RAW264.7 [4] was “Non-toxic” throughout. The IC50 in the series on RAW264.7 [3] was found to be 9.4 µM.

On to `CCCCOC(=O)CC[C@@H](C)[C@H]1CC(=O)[C@@]2(C)C3=C(C(=O)[C@@H](OC(C)=O)[C@]12C)[C@@]1(C)CCC(=O)C(C)(C)[C@@H]1CC3=O` [BUTYL LUCIDENATE D2], for which the Activity entry in the series on RAW264.7 [1] and in the series on RAW264.7 [4] was “Non-toxic” each time. Further, the IC50 with RAW264.7 [3] amounted to 35 µM.

Take `CCCCOC(=O)CC[C@@H](C)[C@H]1CC(=O)[C@@]2(C)C3=C(C(=O)[C@@H](OC(C)=O)[C@]12C)[C@@]1(C)CC[C@H](O)C(C)(C)[C@@H]1C[C@@H]3O` [BUTYL LUCIDENATE P]: the Activity result in the series on RAW264.7 [1] and with RAW264.7 [4] was “Non-toxic” throughout. The inhibition entry in the series on RAW264.7 [2] is “Active”. Moreover, the IC50 in the series on RAW264.7 [3] came out at 7.4 µM. The inhibition entry with RAW264.7 [5] was “Dose-dependent effect”.

With `C[C@H](CC[C@@H](O)C(C)(C)O)[C@H]1CC[C@@]2(C)C3=CC[C@H]4C(C)(C)C(=O)CC[C@]4(C)C3=CC[C@]12C` [GANODERMANONDIOL], the Activity result in the series with RAW264.7 [1] and with RAW264.7 [4] was “Non-toxic” throughout.
